Consider 9 substances from paper PMC2628309 (Journal of the American Chemical Society, 2008).

One assay addresses SH2 domain. To be noted: validated SH2 domain ligand; cited from earlier work.
For assay [1], the target named is T1, Src tyrosine kinase (Homo sapiens, UniProt P12931). Description: Src kinase inhibition. In kind it is biochemical.
Assay [2] has as its target T1, Src tyrosine kinase. To be noted: cited from earlier work.
Setting [3] is: Table 1, Src inhibitors, pre-photolysis.

Read-outs that look alike come from different tables or passages of the source.

For orientation: Kd means the concentration at which binding is half-saturated. With Ac-pTyrGluGluIle-amide, the Kd on SH2 domain was 1000 to 5000 nM. As usually defined, the IC50 is the concentration at which inhibition is half-maximal. Regarding “Ba-EEEIFGE-II-Dap(Hna)-βA3-pYEEIEX [Compound 7]”, in the assay with Src tyrosine kinase [1] (setting [3]), the IC50 was determined as 220 ± 10 nM.

At Src tyrosine kinase [1] (setting [3]), “Ba-EEEIFGE-III-Dap(Hna)-βA3-pY-III-EIEX [Compound 9]” registered an IC50 of 7500 nM. As a reminder, the Ki is a measure of affinity in units of concentration, obtained from inhibition or displacement. With “Ba-EEEIFGEF-Dap(Hna)-βA3-pYEEIEX [Compound 1]”, at Src tyrosine kinase [2], the IC50 was 36 ± 2 nM and the Ki was 26 ± 4 nM.

With “Ba-EEEIFGEF-Dap(Hna)-βA-I-βA-pYEEIEX [Compound 4]”, the IC50 against Src tyrosine kinase [1] (setting [3]) amounted to 115 ± 9 nM. Still for that read-out and setting: in the case of “Ba-EEEIFGEF-Dap(Hna)-βA-II-βA-pYEEIEX [Compound 5]” it was 38 ± 4 nM; in that of “Ba-EEEIFGEF-Dap(Hna)-βA-III-βA-pY-III-EIEX [Compound 10]”, 1600 nM.

Turning to “Ba-EEEIFGEF-Dap(Hna)-βA-III-βA-pYEEIEX [Compound 6]”, the “Src kinase activity in the presence of inhibitor” value at Src tyrosine kinase [1] (1.9 μM inhibitor, no irradiation) is listed as “completely blocked”. The half-inhibitory concentration (IC50) against Src tyrosine kinase [1] (setting [3]) amounted to 18 ± 5 nM; at Src tyrosine kinase [1] (in the presence of 320 μM Ac-pTyrGluGluIle-amide (SH2 ligand competition)), 325 ± 60 nM.

Substance “Ba-EEEIFGEF-Dap(Hna)C-III-βA-pYEEIE-NH2 [Compound 11]” had an IC50 in the assay with Src tyrosine kinase [1] (setting [3]) of 56 ± 4 nM.
